The NIST ThermoML archive (doi:10.1016/j.fluid.2007.04.023)

Conditions: Liquid, Vibrating tube method

CCCCCCCCCCCC [dodecane]
Conditions	mass density [kg/m3]
313.09 K, 1022 kPa	735.79
313.09 K, 2023 kPa	736.6
313.09 K, 3017 kPa	737.36
313.09 K, 4026 kPa	738.14
313.09 K, 5023 kPa	738.89
313.09 K, 6032 kPa	739.66
313.09 K, 7011 kPa	740.38
313.09 K, 8009 kPa	741.15
313.09 K, 9026 kPa	741.91
313.09 K, 10008 kPa	742.66
313.09 K, 11022 kPa	743.39
313.09 K, 12012 kPa	744.09
313.09 K, 13019 kPa	744.82
313.09 K, 14017 kPa	745.55
313.09 K, 15025 kPa	746.22
313.09 K, 16025 kPa	746.91
313.09 K, 17015 kPa	747.58
313.09 K, 18022 kPa	748.26
313.09 K, 19025 kPa	748.93
313.09 K, 20013 kPa	749.59
313.09 K, 21015 kPa	750.23
313.09 K, 22011 kPa	750.9
313.09 K, 23021 kPa	751.53
313.09 K, 24015 kPa	752.21
313.09 K, 24354 kPa	752.42
322.97 K, 1025 kPa	728.33
322.97 K, 2028 kPa	729.17
322.97 K, 3026 kPa	729.97
322.97 K, 4034 kPa	730.78
322.97 K, 5021 kPa	731.59
322.97 K, 6017 kPa	732.37
322.97 K, 7017 kPa	733.17
322.97 K, 8041 kPa	733.99
322.97 K, 9015 kPa	734.73
322.97 K, 10016 kPa	735.5
322.97 K, 11019 kPa	736.28
322.97 K, 12011 kPa	737.01
322.97 K, 13028 kPa	737.78
322.97 K, 14041 kPa	738.53
322.97 K, 14994 kPa	739.22
322.97 K, 16027 kPa	739.96
322.97 K, 17001 kPa	740.64
322.97 K, 18015 kPa	741.35
322.97 K, 19032 kPa	742.07
322.97 K, 20004 kPa	742.74
322.97 K, 21009 kPa	743.43
322.97 K, 22023 kPa	744.14
322.97 K, 23009 kPa	744.8
322.97 K, 24013 kPa	745.5
322.97 K, 24507 kPa	745.83
332.8 K, 1023 kPa	721.08
332.8 K, 2019 kPa	721.96
332.8 K, 3022 kPa	722.81
332.8 K, 4030 kPa	723.69
332.8 K, 5026 kPa	724.53
332.8 K, 6035 kPa	725.36
332.8 K, 7014 kPa	726.16
332.8 K, 8025 kPa	727.03
332.8 K, 9017 kPa	727.84
332.8 K, 10020 kPa	728.67
332.8 K, 11023 kPa	729.46
332.8 K, 12022 kPa	730.26
332.8 K, 13004 kPa	731.04
332.8 K, 14008 kPa	731.81
332.8 K, 15018 kPa	732.57
332.8 K, 16023 kPa	733.35
332.8 K, 17014 kPa	734.08
332.8 K, 18006 kPa	734.82
332.8 K, 19024 kPa	735.59
332.8 K, 20023 kPa	736.32
332.8 K, 21009 kPa	737.01
332.8 K, 22009 kPa	737.73
332.8 K, 23018 kPa	738.45
332.8 K, 24018 kPa	739.17
332.8 K, 24665 kPa	739.63
342.69 K, 1019 kPa	713.8
342.69 K, 2025 kPa	714.75
342.69 K, 3025 kPa	715.67
342.69 K, 4014 kPa	716.58
342.69 K, 5015 kPa	717.47
342.69 K, 6017 kPa	718.36
342.69 K, 7021 kPa	719.25
342.69 K, 8007 kPa	720.13
342.69 K, 9019 kPa	721.03
342.69 K, 10018 kPa	721.86
342.69 K, 11016 kPa	722.71
342.69 K, 12013 kPa	723.56
342.69 K, 13021 kPa	724.39
342.69 K, 14020 kPa	725.21
342.69 K, 15030 kPa	726.04
342.69 K, 16024 kPa	726.83
342.69 K, 17011 kPa	727.58
342.69 K, 18025 kPa	728.36
342.69 K, 19023 kPa	729.15
342.69 K, 20013 kPa	729.88
342.69 K, 21006 kPa	730.67
342.69 K, 22021 kPa	731.41
342.69 K, 23014 kPa	732.15
342.69 K, 24013 kPa	732.89
342.69 K, 24725 kPa	733.44
352.51 K, 1021 kPa	706.54
352.51 K, 2027 kPa	707.55
352.51 K, 3013 kPa	708.48
352.51 K, 4019 kPa	709.46
352.51 K, 5027 kPa	710.45
352.51 K, 6014 kPa	711.35
352.51 K, 7020 kPa	712.33
352.51 K, 8000 kPa	713.23
352.51 K, 9024 kPa	714.18
352.51 K, 10009 kPa	715.07
352.51 K, 11022 kPa	715.96
352.51 K, 12012 kPa	716.84
352.51 K, 13026 kPa	717.71
352.51 K, 14017 kPa	718.6
352.51 K, 15021 kPa	719.45
352.51 K, 16022 kPa	720.3
352.51 K, 17012 kPa	721.08
352.51 K, 18027 kPa	721.95
352.51 K, 19013 kPa	722.74
352.51 K, 20028 kPa	723.53
352.51 K, 21021 kPa	724.33
352.51 K, 22023 kPa	725.14
352.51 K, 23008 kPa	725.88
352.51 K, 24020 kPa	726.65
352.51 K, 24813 kPa	727.31
362.29 K, 1015 kPa	699.21
362.29 K, 2020 kPa	700.31
362.29 K, 3015 kPa	701.33
362.29 K, 4012 kPa	702.34
362.29 K, 5029 kPa	703.4
362.29 K, 6009 kPa	704.36
362.29 K, 7029 kPa	705.38
362.29 K, 8013 kPa	706.3
362.29 K, 9012 kPa	707.31
362.29 K, 10038 kPa	708.31
362.29 K, 11027 kPa	709.22
362.29 K, 12009 kPa	710.09
362.29 K, 13007 kPa	711.04
362.29 K, 14015 kPa	711.96
362.29 K, 15008 kPa	712.81
362.29 K, 16034 kPa	713.71
362.29 K, 17030 kPa	714.59
362.29 K, 18011 kPa	715.43
362.29 K, 19021 kPa	716.29
362.29 K, 20007 kPa	717.15
362.29 K, 21017 kPa	717.94
362.29 K, 22032 kPa	718.77
362.29 K, 23002 kPa	719.6
362.29 K, 24005 kPa	720.38
362.29 K, 24809 kPa	721.05
